According to PubChem BioAssay AID504568 (NMMLSC, 2011):
The source made the active and inactive calls.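 Rule for the calls: active = binding readouts below 60% of the midpoint between blocked and unblocked controls, with summed weighted score above 1; inactive = the rest.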

Tested on: 2C TCR mouse CD8+ T cells, vesicle binding, flow cytometry
Assay: inhibitors of CD8+ T cell LFA-1/ICAM-1 adhesion – powder samples, single concentration, mouse 2C TCR, flow cytometry, confirmation (AID 504568);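 note: lower values mean less vesicle binding and point to an inhibitor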;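 for double-positive events (T cell-vesicle binding): the gate for binding is set so anti-LFA-1 blocked control wells show 10% double positives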
Conditions: stronger effect = lower value; for mean fluorescence percent response: measured here: CD8+ cell vesicle fluorescence mean

SMILES	double-positive events (T cell-vesicle binding)	mean fluorescence percent response [%]
CCOc1ccc(CCNC(=O)CCS(=O)(=O)c2ccc(C)cc2)cc1OCC	23.5%	117
O=C(NCc1cccnc1)C(=O)NCC(c1ccco1)N1CCN(c2ccccc2)CC1 (configuration not stated)	26.8% (inactive)	149
O=C(NCCN1CCN(c2ccccc2)CC1)c1cccc(Br)c1	24.2% (inactive)	152
CC1CCCCC1NC(=O)COC(=O)c1ccc2ncsc2c1 (configuration not stated)	19.9%	111
CCCNC(=O)c1nc2ncc(Br)cn2n1	25.8% (inactive)	154
Cc1ccc(OCCOC(=O)c2cc(S(=O)(=O)N3CCCCC3)ccc2N2CCOCC2)cc1	20.9%	134
Cc1ccccc1C(=O)N1CCC(C(=O)Nc2ccc(C)c(S(=O)(=O)N3CCCCC3)c2)CC1	22.7%	130
CC(Sc1nc2ccccc2[nH]1)C(=O)NC1CCCCC1C (configuration not stated)	25.7% (inactive)	141
Cc1cc(=O)oc2c3c(cc(OCC(=O)NCc4ccncc4)c12)OC(C)(C)CC3	20.8%	128
CCCCn1nc(C(=O)N2CCN(S(=O)(=O)c3ccccc3)CC2)c2ccccc2c1=O	28.1% (inactive)	145
CN(CC(=O)Nc1cc(S(=O)(=O)N2CCCC2)ccc1Cl)Cc1ccc2c(c1)OCO2	20.9%	123
